Values after ≈ are worked out from the molar mass of the structure shown. Numbered stars: 1 amine (or outer) side, 2 acyl side, 3 side chain; on linkers, the order of the positions; unused ones are H or OH. Square brackets hold non-standard residues; d marks the D form. Peptide text beside a SMILES is read from it. ξ: configuration not given here. X1 = N=C1NCC(C(O)C(N[*:1])C(=O)[*:2])N1C1OC(CO)C(O)C(O)C1O; ξEnduracididine(βξ-OH,4'ξ) = N=C1NCC(C(O)C(N)C(=O)O)N1; Cha = N[CH](CC1CCCCC1)C(=O)O
Experiments:
Escherichia coli = assay: In vitro antibacterial evaluation: minimum inhibitory concentration (MIC), broth dilution method; assay type: cell-based; conditions: broth dilution, 18 hours at 35° C.
[1] = tested on: Staphylococcus aureus-SMITH (GC 4543); assay: Acute lethal infection in mice (ED50); assay type: in vivo; conditions: female CD-1 mice, intraperitoneal challenge, intravenous dose 30 min. after infection, 7 day survival ratios
Summary of the method: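 Lethal systemic infection model: female CD-1 mice, 20 ± 1-2 g, intraperitoneal challenge. Single intravenous treatment 30 min after infection; 7-day survival, pooled from 3 tests, gives ED50.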

[2] = Anatomic pathology (heart and kidney histopathology) in mice; assay type: in vivo, CD-1 mice; conditions: 20 mg/kg intravenously daily for 9 days, microscopic histopathology on day 10
Summary of the method: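 Juvenile CD-1 mice (20 days old; 5 vehicle, 5 treated) received glycopeptide antibiotic 20 mg/kg i.v. daily for 9 days. Necropsied tissues formalin-fixed, paraffin-embedded, H&E stained and examined microscopically; findings graded slight to severe versus controls.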

Streptococcus sp. = assay: In vitro antibacterial evaluation: minimum inhibitory concentration (MIC), broth dilution method; assay type: cell-based; conditions: broth dilution, 18 hours at 35° C.
Summary of the method: (§1)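 NCCLS M7-A2 broth dilution with Mueller-Hinton II, testing 64-0.06 μg/mL antibiotic against 5×10^5 CFU/mL inocula. Test strains include recent methicillin-, penicillin- or vancomycin-resistant clinical isolates. MIC is the lowest concentration preventing growth.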

Staphylococcus sp. = assay: as above; assay type: cell-based; conditions: broth dilution, 18 hours at 35° C.; for MIC Staphylococcus aureus-SMITH (GC 4543): strain SMITH GC 4543
Summary of the method: as §1

Enterococcus sp. = assay: as above; assay type: cell-based; conditions: broth dilution, 18 hours at 35° C.
Summary of the method: as §1

[3] = Streptococcus agalactiae (GC 4564)
[4] = Streptococcus pneumoniae (ATCC 6301)
[5] = Streptococcus pneumoniae (GC 1894)
[6] = Streptococcus pneumoniae (GC 4565)
[7] = Streptococcus pyogenes (GC 4563)
[8] = Enterococcus faecalis (ATCC 29212)
[9] = Enterococcus faecalis (GC 2242)
[10] = Enterococcus faecalis (GC 2691)
[11] = Enterococcus faecalis (GC 3059)
[12] = Enterococcus faecalis (GC 4552)
[13] = Enterococcus faecalis (GC 4553)
[14] = Enterococcus faecalis (GC 4554)
[15] = Enterococcus faecalis (GC 6189)

SMILES: Cc1ccc(Oc2cccc(-c3nc4cc(CC5NC(=O)C(C(C)c6ccccc6)NC(=O)CNC(=O)C(CO)NC(=O)C(C(O)C6CNC(=N)N6C6OC(CO)C(O)C(O)C6O)NC(=O)C(C(O)C6CNC(=N)N6)NC5=O)ccc4o3)c2)cc1 (stereo not shown) [Example 28]
- MIC Escherichia coli (ATCC 25922) (Escherichia coli): 64 µg/mL (≈ 54.3 µM)
- MIC Escherichia coli (GC 4559) (Escherichia coli): 64 µg/mL (≈ 54.3 µM)
- MIC Escherichia coli (GC 4560) (Escherichia coli): 8 µg/mL (≈ 6.79 µM)
- median effective dose (ED50), Staphylococcus aureus-SMITH (GC 4543) [1]: 8 mg/kg
- Anatomical Pathology (Day 10), Heart [2]: 0
- Anatomical Pathology (Day 10), Kidney [2]: 0
- MIC Streptococcus agalactiae (GC 4564) (Streptococcus sp.; [3]): 4 µg/mL (≈ 3.39 µM)
- MIC Streptococcus pneumoniae (ATCC 6301) (Streptococcus sp.; [4]): 4 µg/mL (≈ 3.39 µM)
- MIC Streptococcus pneumoniae (GC 1894) (Streptococcus sp.; [5]): 4 µg/mL (≈ 3.39 µM)
- MIC Streptococcus pneumoniae (GC 4565) (Streptococcus sp.; [6]): 4 µg/mL (≈ 3.39 µM)
- MIC Streptococcus pyogenes (GC 4563) (Streptococcus sp.; [7]): 1 µg/mL (≈ 0.849 µM)
- MIC Streptococcus agalactiae (GC 4564) (Streptococcus sp.): 4 µg/mL (≈ 3.39 µM)
- MIC Streptococcus pneumoniae (ATCC 6301) (Streptococcus sp.): 4 µg/mL (≈ 3.39 µM)
- MIC Streptococcus pneumoniae (GC 1894) (Streptococcus sp.): 4 µg/mL (≈ 3.39 µM)
- MIC Streptococcus pneumoniae (GC 4565) (Streptococcus sp.): 4 µg/mL (≈ 3.39 µM)
- MIC Streptococcus pyogenes (GC 4563) (Streptococcus sp.): 1 µg/mL (≈ 0.849 µM)
- MIC Staphylococcus aureus-SMITH (GC 4543) (Staphylococcus sp.): 4 µg/mL (≈ 3.39 µM)
- MIC Enterococcus avium (GC 4558) (Enterococcus sp.; Enterococcus avium (GC 4558)): 4 µg/mL (≈ 3.39 µM)
- MIC Enterococcus faecalis (ATCC 29212) (Enterococcus sp.; [8]): 8 µg/mL (≈ 6.79 µM)
- MIC Enterococcus faecalis (GC 2242) (Enterococcus sp.; [9]): 4 µg/mL (≈ 3.39 µM)
- MIC Enterococcus faecalis (GC 2691) (Enterococcus sp.; [10]): 8 µg/mL (≈ 6.79 µM)
- MIC Enterococcus faecalis (GC 3059) (Enterococcus sp.; [11]): 8 µg/mL (≈ 6.79 µM)
- MIC Enterococcus faecalis (GC 4552) (Enterococcus sp.; [12]): 8 µg/mL (≈ 6.79 µM)
- MIC Enterococcus faecalis (GC 4553) (Enterococcus sp.; [13]): 4 µg/mL (≈ 3.39 µM)
- MIC Enterococcus faecalis (GC 4554) (Enterococcus sp.; [14]): 8 µg/mL (≈ 6.79 µM)
- MIC Enterococcus faecalis (GC 6189) (Enterococcus sp.; [15]): 8 µg/mL (≈ 6.79 µM)
- MIC Enterococcus faecium (GC 2243) (Enterococcus sp.; Enterococcus faecium (GC 2243)): 8 µg/mL (≈ 6.79 µM)
- MIC Enterococcus faecium (GC 4556) (Enterococcus sp.; Enterococcus faecium (GC 4556)): 8 µg/mL (≈ 6.79 µM)
- MIC Enterococcus faecium (GC 4557) (Enterococcus sp.; Enterococcus faecium (GC 4557)): 4 µg/mL (≈ 3.39 µM)
- MIC Enterococcus avium (GC 4558) (Enterococcus sp.): 4 µg/mL (≈ 3.39 µM)
- MIC Enterococcus faecalis (ATCC 29212) (Enterococcus sp.): 8 µg/mL (≈ 6.79 µM)
- MIC Enterococcus faecalis (GC 2242) (Enterococcus sp.): 4 µg/mL (≈ 3.39 µM)
- MIC Enterococcus faecalis (GC 2691) (Enterococcus sp.): 8 µg/mL (≈ 6.79 µM)
- MIC Enterococcus faecalis (GC 3059) (Enterococcus sp.): 8 µg/mL (≈ 6.79 µM)
- MIC Enterococcus faecalis (GC 4552) (Enterococcus sp.): 8 µg/mL (≈ 6.79 µM)
- MIC Enterococcus faecalis (GC 4553) (Enterococcus sp.): 4 µg/mL (≈ 3.39 µM)
- MIC Enterococcus faecalis (GC 4554) (Enterococcus sp.): 8 µg/mL (≈ 6.79 µM)
- MIC Enterococcus faecalis (GC 6189) (Enterococcus sp.): 8 µg/mL (≈ 6.79 µM)
- MIC Enterococcus faecium (GC 2243) (Enterococcus sp.): 8 µg/mL (≈ 6.79 µM)
- MIC Enterococcus faecium (GC 4556) (Enterococcus sp.): 8 µg/mL (≈ 6.79 µM)
- MIC Enterococcus faecium (GC 4557) (Enterococcus sp.): 4 µg/mL (≈ 3.39 µM)

SMILES: N=C1NCC(C(O)C2NC(=O)C(CC3CCCCC3)NC(=O)C(CC3CCCCC3)NC(=O)CNC(=O)C(CO)NC(=O)C(C(O)C3CNC(=N)N3C3OC(CO)C(O)C(O)C3O)NC2=O)N1 (stereo not drawn) [Example 52, Cyclo[3-cyclohexylalanyl-3-cyclohexylalanyl-3-(2-iminoimidazolidin-4-yl)seryl-3-(3-hexopyranosyl-2-iminoimidazolidin-4-yl)serylserylglycyl]] (cyclo(G[Cha][Cha][ξEnduracididine(βξ-OH,4'ξ)][X1]S); configuration not given here)
- MIC Escherichia coli (ATCC 25922) (Escherichia coli): 64 µg/mL (≈ 67.2 µM)
- MIC Escherichia coli (GC 4559) (Escherichia coli): 64 µg/mL (≈ 67.2 µM)
- MIC Escherichia coli (GC 4560) (Escherichia coli): 16 µg/mL (≈ 16.8 µM)
- median effective dose (ED50), Staphylococcus aureus-SMITH (GC 4543) [1]: >4
- Anatomical Pathology (Day 10), Heart [2]: 0
- Anatomical Pathology (Day 10), Kidney [2]: +++
- MIC Streptococcus agalactiae (GC 4564) (Streptococcus sp.; [3]): 8 µg/mL (≈ 8.39 µM)
- MIC Streptococcus pneumoniae (ATCC 6301) (Streptococcus sp.; [4]): 8 µg/mL (≈ 8.39 µM)
- MIC Streptococcus pneumoniae (GC 1894) (Streptococcus sp.; [5]): 8 µg/mL (≈ 8.39 µM)
- MIC Streptococcus pneumoniae (GC 4565) (Streptococcus sp.; [6]): 16 µg/mL (≈ 16.8 µM)
- MIC Streptococcus pyogenes (GC 4563) (Streptococcus sp.; [7]): 8 µg/mL (≈ 8.39 µM)
- MIC Streptococcus agalactiae (GC 4564) (Streptococcus sp.): 8 µg/mL (≈ 8.39 µM)
- MIC Streptococcus pneumoniae (ATCC 6301) (Streptococcus sp.): 8 µg/mL (≈ 8.39 µM)
- MIC Streptococcus pneumoniae (GC 1894) (Streptococcus sp.): 8 µg/mL (≈ 8.39 µM)
- MIC Streptococcus pneumoniae (GC 4565) (Streptococcus sp.): 16 µg/mL (≈ 16.8 µM)
- MIC Streptococcus pyogenes (GC 4563) (Streptococcus sp.): 8 µg/mL (≈ 8.39 µM)
- MIC Coagulase Negative Staphylococcus (GC 4547) (Staphylococcus sp.): 8 µg/mL (≈ 8.39 µM)
- MIC Coagulase Negative Staphylococcus (GC 4548) (Staphylococcus sp.): 8 µg/mL (≈ 8.39 µM)
- MIC Coagulase Negative Staphylococcus (GC 4549) (Staphylococcus sp.): 4 µg/mL (≈ 4.2 µM)
- MIC Coagulase Negative Staphylococcus (GC 4551) (Staphylococcus sp.): 8 µg/mL (≈ 8.39 µM)
- MIC Staphylococcus aureus SMITH (GC 4543) (Staphylococcus sp.): 16 µg/mL (≈ 16.8 µM)
- MIC Staphylococcus haemolyticus (GC 4546) (Staphylococcus sp.): 4 µg/mL (≈ 4.2 µM)
- MIC Staphylococcus aureus-SMITH (GC 4543) (Staphylococcus sp.): 16 µg/mL (≈ 16.8 µM)
- MIC Enterococcus avium (GC 4558) (Enterococcus sp.; Enterococcus avium (GC 4558)): 32 µg/mL (≈ 33.6 µM)
- MIC Enterococcus faecalis (ATCC 29212) (Enterococcus sp.; [8]): 64 µg/mL (≈ 67.2 µM)
- MIC Enterococcus faecalis (GC 2242) (Enterococcus sp.; [9]): 32 µg/mL (≈ 33.6 µM)
- MIC Enterococcus faecalis (GC 2691) (Enterococcus sp.; [10]): 32 µg/mL (≈ 33.6 µM)
- MIC Enterococcus faecalis (GC 3059) (Enterococcus sp.; [11]): 32 µg/mL (≈ 33.6 µM)
- MIC Enterococcus faecalis (GC 4552) (Enterococcus sp.; [12]): 32 µg/mL (≈ 33.6 µM)
- MIC Enterococcus faecalis (GC 4553) (Enterococcus sp.; [13]): 16 µg/mL (≈ 16.8 µM)
- MIC Enterococcus faecalis (GC 4554) (Enterococcus sp.; [14]): 64 µg/mL (≈ 67.2 µM)
- MIC Enterococcus faecalis (GC 6189) (Enterococcus sp.; [15]): 32 µg/mL (≈ 33.6 µM)
- MIC Enterococcus faecium (GC 2243) (Enterococcus sp.; Enterococcus faecium (GC 2243)): 16 µg/mL (≈ 16.8 µM)
- MIC Enterococcus faecium (GC 4556) (Enterococcus sp.; Enterococcus faecium (GC 4556)): 32 µg/mL (≈ 33.6 µM)
- MIC Enterococcus faecium (GC 4557) (Enterococcus sp.; Enterococcus faecium (GC 4557)): 8 µg/mL (≈ 8.39 µM)
- MIC Enterococcus avium (GC 4558) (Enterococcus sp.): 32 µg/mL (≈ 33.6 µM)
- MIC Enterococcus faecalis (ATCC 29212) (Enterococcus sp.): 64 µg/mL (≈ 67.2 µM)
- MIC Enterococcus faecalis (GC 2242) (Enterococcus sp.): 32 µg/mL (≈ 33.6 µM)
- MIC Enterococcus faecalis (GC 2691) (Enterococcus sp.): 32 µg/mL (≈ 33.6 µM)
- MIC Enterococcus faecalis (GC 3059) (Enterococcus sp.): 32 µg/mL (≈ 33.6 µM)
- MIC Enterococcus faecalis (GC 4552) (Enterococcus sp.): 32 µg/mL (≈ 33.6 µM)
- MIC Enterococcus faecalis (GC 4553) (Enterococcus sp.): 16 µg/mL (≈ 16.8 µM)
- MIC Enterococcus faecalis (GC 4554) (Enterococcus sp.): 64 µg/mL (≈ 67.2 µM)
- MIC Enterococcus faecalis (GC 6189) (Enterococcus sp.): 32 µg/mL (≈ 33.6 µM)
- MIC Enterococcus faecium (GC 2243) (Enterococcus sp.): 16 µg/mL (≈ 16.8 µM)
- MIC Enterococcus faecium (GC 4556) (Enterococcus sp.): 32 µg/mL (≈ 33.6 µM)
- MIC Enterococcus faecium (GC 4557) (Enterococcus sp.): 8 µg/mL (≈ 8.39 µM)

Source: patent US8247211B2, “Glycopeptide antibiotics” (American Cyanamid Company, priority 2001, dated 2012)
